In the RepoRT retention time repository (doi:10.1016/j.jhazmat.2019.121712) one finds LC retention time data, which are given here for 92 molecules.

The nature of this series: Thermo Scientific Acclaim RSLC 120 C18, 100 × 2.1 mm, 2.2 µm, 30 °C; A: 90% water + 10% methanol + 0.01% formic acid + 5 mM ammonium formate; B: methanol + 0.01% formic acid + 5 mM ammonium formate; gradient (min/%B) 0.1/1 3/39 14/99.9 16/99.9. As to conditions: stereoisomer not certain.
In the case of `CCOc1ccccc1OS(=O)(=O)NC(=O)Nc1nc(OC)cc(OC)n1`, the LC retention time came out at 9.32 min.

Take `Cc1cc2n[nH]nc2cc1C`: the LC retention time is 6.76 min.

Regarding `O=C(O)CCCCn1cc(C(=O)c2cccc3ccccc23)c2ccccc21`, the LC retention time turned out to be 9.71 min.

Take `Cc1ncc(CSSCc2cnc(C)c(O)c2CO)c(CO)c1O`: the LC retention time was 5.54 min.

For the molecule `NC(=O)CS(=O)C(c1ccccc1)c1ccccc1` (configuration not stated), the LC retention time amounted to 6.76 min.

As to `CCC1C(=O)OCC1Cc1cncn1C` (configuration not stated), the LC retention time was found to be 2.74 min.

As for `CCC1OC(=O)C(C)C(OC2CC(C)(OC)C(O)C(C)O2)C(C)C(OC2OC(C)CC(N(C)C)C2O)C(C)(O)CC(C)CN(C)C(C)C(O)C1(C)O` (configuration not stated), the LC retention time is 5.98 min.

On to `Cc1ccc(N=CN(C)C=Nc2ccc(C)cc2C)c(C)c1`, for which the LC retention time worked out at 13.3 min.

In the case of `CCC1OC(=O)CC(O)C(C)C(OC2OC(C)C(OC3CC(C)(O)C(O)C(C)O3)C(N(C)C)C2O)C(CC=O)CC(C)C(=O)C=CC(C)=CC1COC1OC(C)C(O)C(OC)C1OC` (configuration not stated), the LC retention time came to 7.88 min.

As to `CNC(=O)ON=C(C)C(C)SC` (configuration not stated), the LC retention time is 6.07 min.

As to `COc1ccc(-c2oc3c(CC=C(C)C)c(OC4OC(CO)C(O)C(O)C4O)cc(O)c3c(=O)c2OC2OC(C)C(O)C(O)C2O)cc1` (configuration not stated), the LC retention time was determined as 8.24 min.

In the case of `COC(=O)C(C)N(C(=O)Cc1ccccc1)c1c(C)cccc1C` (configuration not stated), the LC retention time was 10.9 min.

`COC(=O)c1ccccc1S(=O)(=O)NC(=O)N(C)c1nc(C)nc(OC)n1`: the LC retention time stood at 7.94 min.

As for `Cc1ccsc1C=CC1=NCCCN1C`, the LC retention time was 4.36 min.

As to `COC(=O)Nc1nc2ccccc2[nH]1`, the LC retention time was 5.46 min.

`COC(=O)C(C)N(C(=O)c1ccco1)c1c(C)cccc1C` (configuration not stated): the LC retention time was found to be 8.99 min.

Consider `CCCCCn1cc(C(=O)c2cccc3ccccc23)c2ccccc21`, for which the LC retention time was 12.4 min.

For `CC(C)C(O)(C(=O)OCC1=CCN2CCC(O)C12)C(C)O` (configuration not stated), the LC retention time is 3.65 min.

Consider `CC(CC(c1ccccc1)c1ccccc1)NC(C)(C)C` (configuration not stated), for which the LC retention time was found to be 7.91 min.

For the molecule `CCCCNC(=O)n1c(NC(=O)OC)nc2ccccc21`, the LC retention time came out at 5.46 min.

For `COP(=S)(OC)Oc1ccc(Sc2ccc(OP(=S)(OC)OC)cc2)cc1`, the LC retention time amounted to 12.4 min.

`CC(CCc1ccc(O)cc1)NCCc1ccc(O)c(O)c1` (configuration not stated): the LC retention time turned out to be 4.21 min.

With `CC12CCC3C4CCC(=O)C=C4CCC3C1CCC2OC(=O)CCc1ccccc1` (configuration not stated), the LC retention time turned out to be 13.6 min.

On to `CN(C)CCOC(c1ccccc1)c1ccccc1`, for which the LC retention time stood at 6.63 min.

With `CCCCC(=O)N(Cc1ccc(-c2ccccc2-c2nn[nH]n2)cc1)C(C(=O)O)C(C)C` (configuration not stated), the LC retention time was determined as 9.21 min.

On to `CC(CN(C)C)CN1c2ccccc2Sc2ccc(C#N)cc21` (configuration not stated), for which the LC retention time was determined as 7.52 min.

Turning to `C=CCN1CCCC1CNC(=O)c1cc2n[nH]nc2cc1OC` (configuration not stated), the LC retention time amounted to 3.62 min.

For the molecule `COc1cccc(N(C)C(=S)Oc2cccc(C(C)(C)C)c2)n1`, the LC retention time was found to be 12.5 min.

Consider `CCC(C)C(=O)OC1CC(O)C=C2C=CC(C)C(CCC(O)CC(O)CC(=O)O)C21` (configuration not stated), for which the LC retention time worked out at 8.36 min.

For `COc1cc(NS(=O)(=O)c2ccc(N)cc2)ncn1`, the LC retention time was determined as 4.75 min.

Take `CCS(=O)(=O)c1cccnc1S(=O)(=O)NC(=O)Nc1nc(OC)cc(OC)n1`: the LC retention time is 7.09 min.

For the molecule `COc1ccc(CN(CCN(C)C)c2ccccn2)cc1`, the LC retention time is 5.89 min.

On to `O=S(=O)(O)c1ccc2ccccc2c1`, for which the LC retention time was 5.44 min.

For `COc1ccccc1OCC(O)CO` (configuration not stated), the LC retention time was determined as 5.11 min.

As to `CCNc1nc(NC(C)C)nc(SC)n1`, the LC retention time stood at 9.16 min.

As to `COC(=O)c1ccccc1S(=O)(=O)NC(=O)Nc1nc(C)cc(C)n1`, the LC retention time is 6.92 min.

As to `CN(C)c1nc(=O)n(C2CCCCC2)c(=O)n1C`, the LC retention time turned out to be 7.09 min.

Take `N#CC(CCN1CCC(C(N)=O)(N2CCCCC2)CC1)(c1ccccc1)c1ccccc1`: the LC retention time was found to be 8.19 min.

On to `C#CCOS(=O)OC1CCCCC1Oc1ccc(C(C)(C)C)cc1` (configuration not stated), for which the LC retention time was 12.8 min.

For the molecule `CC(O)Cn1cnc2c1c(=O)n(C)c(=O)n2C` (configuration not stated), the LC retention time turned out to be 4.34 min.

On to `COc1ccccc1CC(=O)c1cn(CCC2CCCCC2)c2ccccc12`, for which the LC retention time is 13 min.

As for `C=CCN1CCC23c4c5ccc(O)c4OC2C(O)C=CC3C1C5` (configuration not stated), the LC retention time worked out at 3.39 min.

In the case of `COC(=O)C(Cc1ccccc1)NC(=O)C(N)CC(=O)O` (configuration not stated), the LC retention time amounted to 5.01 min.

On to `Cc1ncc(CO)c(CO)c1O`, for which the LC retention time turned out to be 2.18 min.

Take `CN1CCCCC1Cn1cc(C(=O)C23CC4CC(CC(C4)C2)C3)c2ccccc21` (configuration not stated): the LC retention time stood at 9.94 min.

Take `CC(=O)OCC(=O)C1(O)CCC2C3CCC4=CC(=O)CCC4(C)C3C(O)CC21C` (configuration not stated): the LC retention time was 8.8 min.

As for `CN(C)CCOCC(=O)NC12CC3CC(CC(C3)C1)C2`, the LC retention time was 6.64 min.

For the molecule `Nc1ccn(C2OC(CO)C(O)C2O)c(=O)n1` (configuration not stated), the LC retention time stood at 1.39 min.

Regarding `CCC(Cc1ccc2c(c1)OCO2)NC` (configuration not stated), the LC retention time is 4.66 min.

For the molecule `COc1cc(NC(C)CCCN)c2ncccc2c1` (configuration not stated), the LC retention time was 6.82 min.

As for `COc1ccc(CCN)cc1OC`, the LC retention time came out at 3.53 min.

With `CC1C(=O)OC2CC[N+]3([O-])CC=C(COC(=O)C(C)(O)C1(C)O)C23` (configuration not stated), the LC retention time is 3.19 min.

Turning to `CC=C1N(C)C(C)CC1(c1ccccc1)c1ccccc1` (configuration not stated), the LC retention time came to 6.38 min.

Consider `CN(C)c1nc(N(C)C)nc(N(C)C)n1`, for which the LC retention time came out at 10.1 min.

With `CC#CCn1c(N2CCCC(N)C2)nc2c1c(=O)n(Cc1nc(C)c3ccccc3n1)c(=O)n2C` (configuration not stated), the LC retention time came to 6.01 min.

As to `CCC(C)OC(=O)N1CCCCC1CCO` (configuration not stated), the LC retention time is 8.83 min.

Regarding `CC(COc1ccccc1Cc1ccccc1)N1CCCCC1` (configuration not stated), the LC retention time is 8.32 min.

On to `CCCCCn1cc(C(=O)CC(C)(C)C(C)(C)O)c2ccccc21`, for which the LC retention time stood at 11.6 min.

On to `CC(=O)Oc1cc(C(C)C)c(OCCN(C)C)cc1C`, for which the LC retention time turned out to be 6.21 min.

As for `CNCC1CCCCC1(O)c1cccc(OC)c1` (configuration not stated), the LC retention time turned out to be 5.3 min.

With `CNc1nc(C)c(C)c(OC(=O)N(C)C)n1`, the LC retention time was 5.89 min.

With `CCN(CC)CCN1c2ccccc2Sc2ccccc21`, the LC retention time was 7.76 min.

For `CCOP(=S)(OCC)Oc1cc(C)nc(C(C)C)n1`, the LC retention time turned out to be 11 min.

As for `CCC(c1cccc(O)c1)C(C)CNC` (configuration not stated), the LC retention time came to 5.14 min.

Consider `c1ccc2[nH]c(-c3cscn3)nc2c1`, for which the LC retention time stood at 6.15 min.

For the molecule `COc1cccc(C2(O)CCCCC2CN)c1` (configuration not stated), the LC retention time came to 5.19 min.

With `Cn1c(=O)c2c(ncn2C)n(C)c1=O`, the LC retention time was found to be 4.23 min.

With `COc1ccc2c(c1)[nH]c1c(C)nccc12`, the LC retention time worked out at 5.34 min.

As to `CCCSc1cc(OC)c(CCN)cc1OC`, the LC retention time is 6.98 min.

On to `CCC(C)C1OC2(C=CC1C)CC1CC(CC=C(C)C(OC3CC(OC)C(OC4CC(OC)C(NC)C(C)O4)C(C)O3)C(C)C=CC=C3COC4C(O)C(C)=CC(C(=O)O1)C34O)O2` (configuration not stated), for which the LC retention time came out at 12.4 min.

For the molecule `CCCNC(C)C(=O)Nc1c(C)csc1C(=O)OC` (configuration not stated), the LC retention time came out at 4.69 min.

For `CCCCOC(=O)N(C)SN(C)C(=O)Oc1cccc2c1OC(C)(C)C2`, the LC retention time turned out to be 12.1 min.

In the case of `CN1CCC(=C2c3ccccc3CCc3cccnc32)CC1`, the LC retention time stood at 5.99 min.

`NC(=O)c1cc[n+](CC2=C(C(=O)[O-])N3C(=O)C(NC(=O)Cc4cccs4)C3SC2)cc1` (configuration not stated): the LC retention time amounted to 4.03 min.

For `Cc1ccsc1C(=CCCN1CCCC(C(=O)O)C1)c1sccc1C` (configuration not stated), the LC retention time is 8.43 min.

On to `C[N+]1([O-])CCN2c3ccccc3Cc3ccccc3C2C1` (configuration not stated), for which the LC retention time turned out to be 7.63 min.

With `CCC1OC(=O)C(C)C(OC2CC(C)(OC)C(O)C(C)O2)C(C)C(OC2OC(C)CC(N(C)C)C2O)C(C)(O)CC(C)C(=O)C(C)C(O)C1(C)O` (configuration not stated), the LC retention time turned out to be 8 min.

As for `Cc1cnc(NC(=O)C2=C(O)c3ccccc3S(=O)(=O)N2C)s1`, the LC retention time stood at 7.09 min.

As for `CC(C)N(CCC(C(N)=O)(c1ccccc1)c1ccccn1)C(C)C` (configuration not stated), the LC retention time came to 4.74 min.

With `CC#CC1(O)CCC2C3CCC4=CC(=O)CCC4=C3C(c3ccc(N(C)C)cc3)CC21C` (configuration not stated), the LC retention time worked out at 11.1 min.

For the molecule `COc1ccc2c3c1OC1C(O)C=CC4C(C2)N(C)CCC341` (configuration not stated), the LC retention time is 3.4 min.

For `CC(NC(=O)C(N)CC(=O)O)C(=O)NC1C(C)(C)SC1(C)C` (configuration not stated), the LC retention time is 6.09 min.

As to `COC=C(C(=O)O)c1ccccc1Oc1cc(Oc2ccccc2C#N)ncn1`, the LC retention time came to 8.18 min.

As to `CC(C)CN(CC(O)C(Cc1ccccc1)NC(=O)OC1COC2OCCC12)S(=O)(=O)c1ccc(N)cc1` (configuration not stated), the LC retention time was found to be 8.21 min.

Take `COc1cc(NS(=O)(=O)c2ccc(NC(C)=O)cc2)nc(OC)n1`: the LC retention time was determined as 6.23 min.

For `CCCCNc1ccc(C(=O)OCCN(C)C)cc1`, the LC retention time was determined as 6.43 min.

Turning to `Cc1c(NC=O)c(=O)n(-c2ccccc2)n1C`, the LC retention time was determined as 3.96 min.

For the molecule `OCCN(CCO)c1nc(N2CCCCC2)c2nc(N(CCO)CCO)nc(N3CCCCC3)c2n1`, the LC retention time was found to be 9.36 min.

As to `CON=C(C(=O)OC)c1ccccc1COc1ccccc1C`, the LC retention time was determined as 10.8 min.

For `CN=CNc1ccc(C)cc1C`, the LC retention time came to 4.44 min.

On to `NC(=O)N1c2ccccc2CC(=O)c2ccccc21`, for which the LC retention time was 6.46 min.

Turning to `CCOC(=O)C=C1SC(N2CCCCC2)C(=O)N1CC` (configuration not stated), the LC retention time is 9.85 min.
